This note sets out measurements from patent US8735414B2 (priority 2009, dated 2014).

In general, IC50 refers to the point on the concentration scale where inhibition reaches its midpoint. Usually melting point stands for the temperature of the solid-liquid transition.

In series [1] the test system is bicistronic HCV replicon (replicon RNA, GenBank Accession No. AJ242654). Briefly: HCV Replicon Assay. In kind it is cell-based. The settings on record: Hepatitis C virus, 72 h, read-out: Replicon IC50. For orientation: Replicon systems follow genome replication, usually without infectious particles.

Where only a bound is given, the exact number is not on record here.

Take `CC(C)(NS(=O)(=O)c1ccc(-c2c(C#N)c3ccc(OC(F)F)cc3n2-c2ccc(F)cc2)nc1)C(F)(F)F` [compound 687, 6-[3-cyano-6-(difluoromethoxy)-1-(4-fluorophenyl)-1H-indol-2-yl]-N-(1,1,1-trifluoro-2-methylpropan-2-yl)pyridine-3-sulfonamide]: the melting point was 215 to 216 °C. Further, in series [1], the IC50 is less than 500 nM.
Compound `Cc1ccc2c(C#N)c(-c3ccc(S(=O)(=O)N[C@H](C)C(F)(F)F)cn3)n(-c3ncccn3)c2c1` [compound 688, 6-[3-cyano-6-methyl-1-(pyrimidin-2-yl)-1H-indol-2-yl]-N-[(2R)-1,1,1-trifluoropropan-2-yl]pyridine-3-sulfonamide] showed a melting point of 196 to 198 °C. In addition, the IC50 in series [1] was less than 500 nM.
Compound `Cc1ccc2c(C#N)c(-c3ccc(S(=O)(=O)NC(C)(C)C(F)(F)F)cn3)n(-c3ncccn3)c2c1` [compound 689, 6-[3-cyano-6-methyl-1-(pyrimidin-2-yl)-1H-indol-2-yl]-N-(1,1,1-trifluoro-2-methylpropan-2-yl)pyridine-3-sulfonamide] yielded a melting point of 202 to 205 °C. Also, the IC50 in series [1] lay within 500 to 2000 nM.
In the same order, the values of `N#Cc1c(-c2ccc(S(=O)(=O)NC3(C(F)(F)F)CC3)cn2)n(-c2ncccn2)c2cc(OC(F)F)ccc12` [compound 690, 6-[3-cyano-6-(difluoromethoxy)-1-(pyrimidin-2-yl)-1H-indol-2-yl]-N-[1-(trifluoromethyl)cyclopropyl]pyridine-3-sulfonamide] are 170 to 174 °C and 500 to 2000 nM.
Consider `Cc1cc2c(cc1O)c(C#N)c(-c1ccc(S(=O)(=O)N[C@@H](C)C(F)(F)F)cn1)n2C1CCCC1` [compound 691, 6-(3-cyano-1-cyclopentyl-5-hydroxy-6-methyl-1H-indol-2-yl)-N-[(2S)-1,1,1-trifluoropropan-2-yl]pyridine-3-sulfonamide], for which the melting point lay in the range of 232 to 233 °C. The IC50 in series [1] was less than 500 nM.
In the same order, the values of `Cc1cc2c(cc1Br)c(C#N)c(-c1ccc(S(=O)(=O)N[C@H](C)C(F)(F)F)cn1)n2C1CCCC1` [compound 692, 6-(5-bromo-3-cyano-1-cyclopentyl-6-methyl-1H-indol-2-yl)-N-[(2R)-1,1,1-trifluoropropan-2-yl]pyridine-3-sulfonamide] are 226.5 to 227 °C and less than 500 nM.
Turning to `COc1cc2c(C#N)c(-c3ccc(S(=O)(=O)N[C@H](C)C(F)(F)F)cn3)n(C3CCCC3)c2cc1C` [compound 694, 6-(3-cyano-1-cyclopentyl-5-methoxy-6-methyl-1H-indol-2-yl)-N-[(2R)-1,1,1-trifluoropropan-2-yl]pyridine-3-sulfonamide], the melting point is 210.5 to 211 °C. In addition, the IC50 in series [1] lay within 2000 to 5000 nM.
In the same order, the values of `Cc1cc2c(cc1F)c(C#N)c(-c1ccc(S(=O)(=O)N[C@H](C)C(F)(F)F)cn1)n2-c1ccccn1` [compound 698, 6-[3-cyano-5-fluoro-6-methyl-1-(pyridin-2-yl)-1H-indol-2-yl]-N-[(2R)-1,1,1-trifluoropropan-2-yl]pyridine-3-sulfonamide] are 170 to 174 °C and less than 500 nM.
Taken in the same sequence, the figures for `Cc1cc2c(cc1F)c(C(N)=O)c(-c1ccc(S(=O)(=O)N[C@H](C)C(F)(F)F)cn1)n2C1CCCC1` [compound 699, 1-cyclopentyl-5-fluoro-6-methyl-2-(5-{[(2R)-1,1,1-trifluoropropan-2-yl]sulfamoyl}pyridin-2-yl)-1H-indole-3-carboxamide] were 243 to 245 °C and less than 500 nM.
Consider `Cc1cc2c(cc1F)c(C(N)=O)c(-c1ccc(S(=O)(=O)N[C@@H](C)C(F)(F)F)cn1)n2C1CCCC1` [compound 700, 1-cyclopentyl-5-fluoro-6-methyl-2-(5-{[(2S)-1,1,1-trifluoropropan-2-yl]sulfamoyl}pyridin-2-yl)-1H-indole-3-carboxamide], for which the melting point was in the range of 244 to 246 °C. Moreover, in series [1], the half-maximal inhibitory concentration (IC50) was less than 500 nM.
In the same order, the values of `Cc1cc2c(cc1F)c(C(N)=O)c(-c1ccc(S(=O)(=O)NC(C)(C)C(F)(F)F)cn1)n2C1CCCC1` [compound 701, 1-cyclopentyl-5-fluoro-6-methyl-2-{5-[(1,1,1-trifluoro-2-methylpropan-2-yl)sulfamoyl]pyridin-2-yl}-1H-indole-3-carboxamide] are 211 to 214 °C and less than 500 nM.
`C[C@H](NS(=O)(=O)c1ccc(-c2c(C#N)c3cc(CC(F)F)ccc3n2C2CCC2)nc1)C(F)(F)F` [compound 702, 6-[3-cyano-1-cyclobutyl-5-(2,2-difluoroethyl)-1H-indol-2-yl]-N-[(2S)-1,1,1-trifluoropropan-2-yl]pyridine-3-sulfonamide] registered a melting point of 143 to 147 °C. Further, the IC50 in series [1] is less than 500 nM.
Consider `C[C@H](NS(=O)(=O)c1ccc(-c2c(C(N)=O)c3cc(F)c(OC(F)F)cc3n2C2CCC2)nc1)C(F)(F)F` [compound 703, 1-cyclobutyl-6-(difluoromethoxy)-5-fluoro-2-(5-{[(2S)-1,1,1-trifluoropropan-2-yl]sulfamoyl}pyridin-2-yl)-1H-indole-3-carboxamide], for which the melting point fell in the range of 184 to 186 °C. Besides, the IC50 in series [1] was less than 500 nM.
As for `Cc1cc2c(cc1F)c(C#N)c(-c1ccc(S(=O)(=O)NC(C)(C)C(F)(F)F)cn1)n2C1CCCCC1` [compound 705, 6-(3-cyano-1-cyclohexyl-5-fluoro-6-methyl-1H-indol-2-yl)-N-(1,1,1-trifluoro-2-methylpropan-2-yl)pyridine-3-sulfonamide], the melting point was 248 to 254 °C. Moreover, in series [1], the IC50 is less than 500 nM.
In the same order, the values of `Cc1cc2c(cc1F)c(C(N)=O)c(-c1ccc(S(=O)(=O)N[C@@H](C)C(F)(F)F)cn1)n2C1CCCCC1` [compound 706, 1-cyclohexyl-5-fluoro-6-methyl-2-(5-{[(2S)-1,1,1-trifluoropropan-2-yl]sulfamoyl}pyridin-2-yl)-1H-indole-3-carboxamide] are 273 to 279 °C and less than 500 nM.
Regarding `C[C@H](NS(=O)(=O)c1ccc(-c2c(C#N)c3cc(Cl)ccc3n2-c2ncccn2)nc1)C(F)(F)F` [compound 708, 6-[5-chloro-3-cyano-1-(pyrimidin-2-yl)-1H-indol-2-yl]-N-[(2S)-1,1,1-trifluoropropan-2-yl]pyridine-3-sulfonamide], the melting point lay in the range of 193 to 196 °C. For the same compound, in series [1], the IC50 was less than 500 nM.
In the same order, the values of `CC(=O)N([C@H](C)C(F)(F)F)S(=O)(=O)c1ccc(-c2c(C#N)c3cc(F)c(C)cc3n2C2CCCC2)nc1` [compound 709, N-{[6-(3-cyano-1-cyclopentyl-5-fluoro-6-methyl-1H-indol-2-yl)pyridin-3-yl]sulfonyl}-N-[(2R)-1,1,1-trifluoropropan-2-yl]acetamide] are 162 to 163 °C and less than 500 nM.
Taken in the same sequence, the figures for `Cc1cc2c(cc1F)c(C#N)c(-c1ccc(S(=O)(=O)NC(C)(C)C)cn1)n2C1CCCCC1` [compound 710, N-tert-butyl-6-(3-cyano-1-cyclohexyl-5-fluoro-6-methyl-1H-indol-2-yl)pyridine-3-sulfonamide] were 244 to 245 °C and less than 500 nM.
In the same order, the values of `C[C@@H](NS(=O)(=O)c1ccc(-c2c(C#N)c3cc(F)c(OC(F)F)cc3n2C2CCCC2)nc1)C(F)(F)F` [compound 713, 6-[3-cyano-1-cyclopentyl-6-(difluoromethoxy)-5-fluoro-1H-indol-2-yl]-N-[(2R)-1,1,1-trifluoropropan-2-yl]pyridine-3-sulfonamide] are 197 to 200 °C and less than 500 nM.
As to `Cc1cc2c(cc1F)c(C(N)=O)c(-c1ccc(S(=O)(=O)NC(C)(C)C(F)(F)F)cn1)n2C1CCCCC1` [compound 714, 1-cyclohexyl-5-fluoro-6-methyl-2-{5-[(1,1,1-trifluoro-2-methylpropan-2-yl)sulfamoyl]pyridin-2-yl}-1H-indole-3-carboxamide], the melting point lay in the range of 245 to 250 °C. The half-inhibitory concentration (IC50) in series [1] was less than 500 nM.
In the same order, the values of `Cc1cc2c(cc1F)c(C(N)=O)c(-c1ccc(S(N)(=O)=O)cn1)n2C1CCCCC1` [compound 715, 1-cyclohexyl-5-fluoro-6-methyl-2-(5-sulfamoylpyridin-2-yl)-1H-indole-3-carboxamide] are 254 to 257 °C and less than 500 nM.
In the same order, the values of `Cc1cc2c(cc1F)c(C(N)=O)c(-c1ccc(S(=O)(=O)N[C@H](C)C(F)(F)F)cn1)n2C1CCCCC1` [compound 716, 1-cyclohexyl-5-fluoro-6-methyl-2-(5-{[(2R)-1,1,1-trifluoropropan-2-yl]sulfamoyl}pyridin-2-yl)-1H-indole-3-carboxamide] are 272 to 276 °C and less than 500 nM.
In the same order, the values of `COC(=O)c1c(-c2ccc(S(=O)(=O)N[C@@H](C)C(F)(F)F)cn2)n(C2CCCCC2)c2ccc(F)cc12` [compound 717, methyl 1-cyclohexyl-5-fluoro-2-(5-{[(2S)-1,1,1-trifluoropropan-2-yl]sulfamoyl}pyridin-2-yl)-1H-indole-3-carboxylate] are 232 to 240 °C and 500 to 2000 nM.
`C[C@@H](NS(=O)(=O)c1ccc(-c2c(C(N)=O)c3cc(F)c(OC(F)F)cc3n2C2CCCC2)nc1)C(F)(F)F` [compound 718, 1-cyclopentyl-6-(difluoromethoxy)-5-fluoro-2-(5-{[(2R)-1,1,1-trifluoropropan-2-yl]sulfamoyl}pyridin-2-yl)-1H-indole-3-carboxamide] returned a melting point of 218 to 220 °C. Moreover, the IC50 in series [1] was less than 500 nM.
In the same order, the values of `CC(C)(C)NS(=O)(=O)c1ccc(-c2c(C#N)c3cc(F)c(O)cc3n2C2CCC2)nc1` [compound 719, N-tert-butyl-6-(3-cyano-1-cyclobutyl-5-fluoro-6-hydroxy-1H-indol-2-yl)pyridine-3-sulfonamide] are 242 to 245 °C and 500 to 2000 nM.
Compound `N#Cc1c(-c2ccc(S(N)(=O)=O)cn2)n(C2CCC2)c2cc(OC(F)F)c(F)cc12` [compound 722, 6-[3-cyano-1-cyclobutyl-6-(difluoromethoxy)-5-fluoro-1H-indol-2-yl]pyridine-3-sulfonamide] displayed a melting point of 172 to 175 °C. Moreover, the IC50 in series [1] was less than 500 nM.
